Test results published in EP4741391A1, “NMT INHIBITOR, AND PREPARATION METHOD THEREFOR AND USE THEREOF” (Nanjing Synnocare Pharmaceutical Technology Co., Ltd., priority 2023, dated 2025).

Columns and labels:
NMT1 enzyme = biological target: T1, NMT1 enzyme (Homo sapiens, UniProt P30419); assay: Inhibitory activity on NMT1 enzyme catalysis (fluorescence intensity, CPM probe); assay type: biochemical; conditions: 6 nM NMT1 enzyme, 1.25 µM myristoyl-CoA, 20 µM HSPP60 SRC peptide, 45 minutes at 25 °C
T1 sequence (P30419 1-496): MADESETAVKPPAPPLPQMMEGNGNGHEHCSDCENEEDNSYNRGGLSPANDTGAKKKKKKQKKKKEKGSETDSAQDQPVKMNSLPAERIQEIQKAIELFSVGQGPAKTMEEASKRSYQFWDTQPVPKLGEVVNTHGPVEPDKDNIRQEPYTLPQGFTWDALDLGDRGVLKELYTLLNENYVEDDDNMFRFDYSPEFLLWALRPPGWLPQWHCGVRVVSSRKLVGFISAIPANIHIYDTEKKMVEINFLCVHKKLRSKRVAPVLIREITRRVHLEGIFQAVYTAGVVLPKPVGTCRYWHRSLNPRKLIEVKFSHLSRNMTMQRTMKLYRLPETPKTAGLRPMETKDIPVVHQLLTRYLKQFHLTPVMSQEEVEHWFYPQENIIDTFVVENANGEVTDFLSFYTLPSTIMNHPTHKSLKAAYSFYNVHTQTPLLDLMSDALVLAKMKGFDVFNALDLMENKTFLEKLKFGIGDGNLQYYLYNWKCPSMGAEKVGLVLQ
Description: This study evaluated the ability of the compounds of the invention to inhibit NMT1 catalytic activity in vitro. The experiment used a FI (Fluorescence Intensity) analysis method, characterizing NMT1 inhibitors under conditions of 1.25 µM myristoyl-CoA (Lithium salt, Sigma, M4414). In this experiment, a synthesized peptide with the sequence H-Gly-Ser-Asn-Lys-Ser-Lys-Pro-Lys-NH2, HSPP60SRC (Nanjing Peptide Industry, NJP23953), was used as the reaction substrate. The final concentration of the NMT1 enzyme was 6 nM, the final concentration of CPM (Reactive thiol fluorescence probe, Invitrogen, D346) was 1 µM, the final concentration of HSPP60 SRC was 20 µM, and the final concentration of DMSO was 0.5%.
Compounds were dissolved in DMSO to obtain 10 mM stock solutions. Dose-response solutions were prepared with a top endpoint compound concentration of 3 mM, followed by three-fold serial dilutions in DMSO, totaling ten data points. Using an ECHO acoustic liquid handler (BECKMAN, ECHO 655 system), 0.05 µL of the diluted compound solutions was transferred to a 384-well assay plate (Corning, CLS4514). Then, 2.5 µL of the NMT1 enzyme working solution was added to the 384-well assay plate, followed by incubation at 25 °C for 10 minutes. Subsequently, 5 µL of the CPM and myristoyl-CoA working solution was added, the plate was centrifuged at 1000 rpm for 1 minute, and then 2.5 µL of the HSPP60 SRC working solution was added to initiate the reaction. The reaction was incubated at 25 °C for 45 minutes. The FI signal ([…]; ex: 405 nm) was detected using an HTS high-throughput screening multifunctional microplate reader (BMG, PHERA star FSX).
The inhibition rate of the compounds on NMT1 enzyme catalytic activity was calculated using the following formula: Inhibition Percentage (%) = 100 * (Mean of DMSO group - Mean of Compound group) / (Mean of DMSO group - Mean of Blank control group). The IC50 curve of the compounds was fitted using the software XLfit 5.5.0 according to the nonlinear regression equation. Table 1 provides the inhibitory activity of the compounds of the invention on NMT1 enzyme catalysis.

MV-4-11 cells = assay: Anti-proliferative activity against MV-4-11 cells (three-day cell viability chemiluminescence); assay type: cell-based; conditions: Homo sapiens, MV4-11, 72 h, MV-4-11 human monocytic leukemia cells, three days of exposure
Description: This study utilized a cell proliferation assay to analyze the cytotoxicity of MV-4-11 human monocytic leukemia cells after three days of exposure to NMT1 inhibitors. The MV-4-11 cell line was purchased from Nanjing Cobuilder Biotechnology Co., Ltd., and cultured in IMDM medium (Viva cell) in an incubator (Thermo) at 37 °C with 5% CO2. In this experiment, NMT1 inhibitors were dissolved in DMSO to obtain 600 µM stock solutions. Dose-response solutions were prepared with a top endpoint compound concentration of 3 µM, followed by three-fold serial dilutions in DMSO, totaling eight data points. The final concentration of DMSO was 0.5%.
MV-4-11 cells were seeded into a white 96-well plate, 80 µL of cell suspension per well, containing 6000 MV-4-11 cells. The cell plate was placed in the CO2 incubator for overnight culture. Then, 20 µL of NMT1 inhibitor solutions at different concentrations were added to the wells. The 96-well plate was placed back into the incubator for three days. Another cell plate was prepared, and the signal was read on the day of drug addition to serve as the maximum value (Max value in the equation below) for data analysis. To this cell plate, 25 µL of cell viability chemiluminescence detection reagent was added per well, followed by incubation at room temperature for 10 minutes to stabilize the luminescence signal. A multi-label analyzer was used for reading.
The raw data were converted into inhibition rates using the equation (Sample - Min) / (Max - Min) * 100%. The IC50 values were then determined by fitting a four-parameter curve (using the "log(inhibitor) vs. response - Variable slope" model in GraphPad Prism). Min: wells treated with 0.5% DMSO; Max: Day 0 wells. Table 1 provides the inhibitory activity of the compounds of the invention on MV-4-11 cell proliferation. Table 1: Compound Inhibitory Activity against NMT1 Enzyme (IC50) and Anti-proliferative Activity against MV-4-11 Cells (IC50)

Row | IC50 (NMT1 enzyme) [nM] | IC50 (MV-4-11 cells) [nM] | SMILES
1 | 1.98 | 18.4 | Cc1nn(C)c(C)c1CCOc1cc(Cl)ccc1-c1ccn2ncc(CN(C)C)c2c1 [Compound 14, 5-(4-chloro-2-{[2-(1,3,5-trimethylpyrazol-4-yl)ethyl]oxy}phenyl)-3-[(dimethylamino)methyl]pyrazolo[1,5-a]pyridine]
2 | 3.45 | 41.2 | Cc1c(CCOc2cc(Cl)ccc2-c2ccn3ncc(CN)c3c2)c(C(=O)N(C)C)nn1C [Compound 3, 4-[2-({2-[3-(aminomethyl)pyrazolo[1,5-a]pyridin-5-yl]-5-chlorophenyl}oxy)ethyl]-1,5,N,N-tetramethylpyrazole-3-carboxamide]
3 | 2.79 | 23.2 | Cc1c(CCOc2cc(Cl)ccc2-c2ccn3ncc(CN(C)C)c3c2)c(C#N)nn1C [Compound 13, 4-{2-[(5-chloro-2-{3-[(dimethylamino)methyl]pyrazolo[1,5-a]pyridin-5-yl}phenyl)oxy]ethyl}-1,5-dimethylpyrazole-3-carbonitrile]
4 | 2.57 | 19.4 | CNCc1cnn2ccc(-c3ccc(F)c(F)c3OCCc3c(C)nn(C)c3C)cc12 [Compound 23, 5-(3,4-difluoro-2-{[2-(1,3,5-trimethylpyrazol-4-yl)ethyl]oxy}phenyl)-3-[(methylamino)methyl]pyrazolo[1,5-a]py ridine]
5 | 2.48 | 12.3 | CNCc1cnn2ccc(-c3ccc(F)c(F)c3OCCc3c(CF)nn(C)c3C)cc12 [Compound 26, 5-[3,4-difluoro-2-({2-[3-(fluoromethyl)-1,5-dimethylpyrazol-4-yl]ethyl}oxy)phenyl]-3-[(methylamino)methyl]p yrazolo[1,5-a]pyridine]
6 | 3.67 | 31.7 | Cc1c(CCOc2cc(Cl)ccc2-c2ccn3ncc(CN(C)C)c3c2)c(CO)nn1C [Compound 12, (4-{2-[(5-chloro-2-{3-[(dimethylamino)methyl]-pyrazolo [1,5-a]pyridin-5-yl}phenyl)oxy]ethyl}-1,5-dimethylpyrazol-3-yl)methanol]
7 | 2.81 | 24.9 | CCc1nn(C)c(C)c1CCOc1c(-c2ccn3ncc(CNC)c3c2)ccc(F)c1F [Compound 24, 5-(2-{[2-(3-ethyl-1,5-dimethylpyrazol-4-yl)ethyl]oxy}-3,4-difluorophenyl)-3-[(methylamino)methyl]pyrazolo[1,5-a]pyridine]
8 | 5.32 | 41.8 | Cc1c(CCOc2cc(Cl)ccc2-c2ccn3ncc(CN(C)C)c3c2)c(C(N)=O)nn1C [Compound 16, 4-{2-[(5-chloro-2-{3-[(dimethylamino)methyl]pyrazolo[1,5-a]pyridin-5-yl}phenyl)oxy]ethyl}-1,5-dimethylpyrazole-3-carboxamide]
9 | 1.93 |  | CNCc1cnn2ccc(-c3ccc(F)cc3OCCc3c(C(O)C(C)(C)C)nn(C)c3C)cc12 (centres unmarked) [Compound 34, 1-(4-{2-[(5-fluoro-2-{3-[(methylamino)methyl]pyrazolo[1,5-a]pyridin-5-yl}phenyl)oxy]ethyl}-1,5-dimethylpyrazol-3-yl)-2,2-dimethylpropan-1-ol]
10 | 2.89 | 28.4 | Cc1c(CCOc2c(-c3ccn4ncc(CN(C)C)c4c3)ccc(Cl)c2F)c(C(=O)N(C)C)nn1C [Compound 8, 4-{2-[(3-chloro-6-{3-[(dimethylamino)methyl]pyrazolo[1,5-a]pyridin-5-yl}-2-fluorophenyl)oxy]ethyl}-1,5,N,N-tetramethylpyrazole-3-carboxamide]
11 | 1.71 |  | CNCc1cnn2ccc(-c3ccc(F)c(F)c3OCCc3c(C(O)C(C)C)nn(C)c3C)cc12 (centres unmarked) [Compound 32, 1-(4-{2-[(2,3-difluoro-6-{3-[(methylamino)methyl]pyrazolo[1,5-a]pyridin-5-yl}phenyl)oxy]ethyl}-1,5-dimethylpyrazol-3-yl)-2-methylpropan-1-ol]
12 | 2.76 | 23.5 | CCN(CC)C(=O)c1nn(C)c(C)c1CCOc1cc(Cl)ccc1-c1ccn2ncc(CN(C)C)c2c1 [Compound 20, 4-{2-[(5-chloro-2-{3-[(dimethylamino)methyl]pyrazolo[1,5-a]pyridin-5-yl}phenyl)oxy]ethyl}-N,N-diethyl-1,5-dimethylpyrazole-3-carboxamide]
13 | 1.96 |  | CNCc1cnn2ccc(-c3ccc(F)cc3OCCc3c(C(O)C(C)C)nn(C)c3C)cc12 (centres unmarked) [Compound 36, 1-(4-{2-[(5-fluoro-2-{3-[(methylamino)methyl]pyrazolo[1,5-a]pyridin-5-yl}phenyl)oxy]ethyl}-1,5-dimethylpyrazol-3-yl)-2-methylpropan-1-ol]
14 | 2.97 | 30.2 | CCNC(=O)c1nn(C)c(C)c1CCOc1cc(Cl)ccc1-c1ccn2ncc(CN(C)C)c2c1 [Compound 18, 4-{2-[(5-chloro-2-{3-[(dimethylamino)methyl]pyrazolo[1,5-a]pyridin-5-yl}phenyl)oxy]ethyl}-N-ethyl-1,5-dime thylpyrazole-3-carboxamide]
15 | 1.62 |  | CNCc1cnn2ccc(-c3ccc(F)c(F)c3OCCc3c(C(O)C(C)(C)C)nn(C)c3C)cc12 (centres unmarked) [Compound 30, 1-(4-{2-[(2,3-difluoro-6-{3-[(methylamino)methyl]-pyrazolo[1,5-a]pyridin-5-yl}phenyl)oxy]ethyl}-1,5-dimethylpyrazol-3-yl)-2,2-dimethylpr opan-1-ol]
16 | 2.34 | 20.7 | CCc1nn(C)c(C)c1CCOc1cc(Cl)ccc1-c1ccn2ncc(CN(C)C)c2c1 [Compound 15, 5-(4-chloro-2-{[2-(3-ethyl-1,5-dimethylpyrazol-4-yl)ethyl]oxy}phenyl)-3-[(dimethylamino)methyl]pyrazolo[1,5-a]pyridine]
17 | 2.38 | 25.8 | CNC(=O)c1nn(C)c(C)c1CCOc1cc(Cl)ccc1-c1ccn2ncc(CN(C)C)c2c1 [Compound 17, 4-{2-[(5-chloro-2-{3-[(dimethylamino)methyl]pyrazolo[1,5-a]pyridin-5-yl}phenyl)oxy]ethyl}-1,5,N-trimethylp yrazole-3-carboxamide]
18 | 1.82 |  | CNCc1cnn2ccc(-c3ccc(F)c(F)c3OCCc3c(C(C)O)nn(C)c3C)cc12 (centres unmarked) [Compound 31, 1-(4-{2-[(2,3-difluoro-6-{3-[(methylamino)methyl]-pyrazolo[1,5-a]pyridin-5-yl}phenyl)oxy]ethyl}-1,5-dimethylpyrazol-3-yl)ethan-1-ol]
19 | 1.7 |  | CNCc1cnn2ccc(-c3ccc(F)c(F)c3OCCc3c(C(C)(C)O)nn(C)c3C)cc12 [Compound 29, 2-(4-{2-[(2,3-difluoro-6-{3-[(methylamino)methyl]-pyrazolo[1,5-a]pyridin-5-yl}phenyl)oxy]ethyl}-1,5-dimethylpyrazol-3-yl)propan-2-ol]
